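Test compounds were applied to cells in 96-well plates for 48 hours at 5 doses. The concentration for 50% growth inhibition is given as GI50.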 Calls of active or inactive are those of the source. No stated cut-off is given here; in the data, active = GI50 up to about 1.1 µM and inactive = higher.
How the values were obtained:
Assay in all cases: inhibition of tumour cell growth, NCI panel, 48 h
DMS-114 = tested on: DMS-114
DMS-273 = tested on: DMS-273
HOP-18 = tested on: HOP-18
KM-20L2 = tested on: KM-20L2
RXF 631 = tested on: RXF 631
XF498 = tested on: XF498
DLD-1 = tested on: DLD-1
SNB-78 = tested on: SNB-78
T47D = tested on: T47D

| Compound | GI50 (DMS-114) | GI50 (DMS-273) | GI50 (HOP-18) | GI50 (KM-20L2) | GI50 (RXF 631) | GI50 (XF498) | GI50 (DLD-1) | GI50 (SNB-78) | GI50 (T47D) |
| --- | --- | --- | --- | --- | --- | --- | --- | --- | --- |
| O=C(Cn1ccnc1[N+](=O)[O-])NCc1ccc(F)cc1 | > 100 µM (inactive) | > 100 µM (inactive) | > 100 µM (inactive) | > 100 µM (inactive) | > 100 µM (inactive) | > 100 µM (inactive) |  |  |  |
| Cc1ccc(NC(=O)CC/C(CC(=O)C(C)(C)C)=N/NC(=O)C[N+](C)(C)C)cc1C | > 100 µM (inactive) |  | > 100 µM (inactive) | > 100 µM (inactive) |  |  | > 100 µM (inactive) | > 100 µM (inactive) |  |
| COC(=O)C1=C(C)NC(=O)N2[C@@H](CCOCc3ccccc3)CC[C@@H]12 |  |  |  |  |  |  |  |  | 12.4 µM (inactive) |
| COc1ccc(C2=C(N)c3ncccc3C2=O)cc1 |  |  |  |  |  |  |  |  | > 100 µM (inactive) |
| C=CCNC(=O)NC(=O)CSC1=NC(=O)C2(NN1)c1ccccc1-c1ccccc12 |  |  |  |  |  |  |  |  | > 10 µM (inactive) |
| OCC(O)C(O)C(O)c1nn(-c2ccccc2)c2nc3cc(Cl)c(Cl)cc3nc12 (stereo unspecified) | 31.6 µM (inactive) | 39.8 µM (inactive) | 67.5 µM (inactive) | 37.2 µM (inactive) |  | 23.4 µM (inactive) | 30.1 µM (inactive) | 54.1 µM (inactive) |  |
| c1ccc2c(Nc3ncco3)cccc2c1 |  |  |  |  |  |  |  |  | > 10 µM (inactive) |
| CCCCCCCCCCCCCCCCCCNc1nc(=O)n(C2CC(O)C(COP(=O)(O)O)O2)cc1F (stereo unspecified) |  |  |  |  |  |  |  |  | 42.9 µM (inactive) |
| C1CN2CCN3CCN4CCN1[PH]243 | > 100 µM (inactive) | > 100 µM (inactive) | > 100 µM (inactive) | > 100 µM (inactive) |  | > 100 µM (inactive) | > 100 µM (inactive) | > 100 µM (inactive) |  |
| C/C(=N\NC(=S)N1CCCCC1)c1nc2cccnc2[nH]1 |  |  |  |  |  |  |  |  | 5.08 µM (inactive) |
| CC(=O)OC1C(COC(N)=O)OC(n2c(-c3ccc(C)cc3)cc(-c3ccccc3)c(C#N)c2=O)C(OC(C)=O)C1OC(C)=O (stereo unspecified) |  | > 100 µM (inactive) | > 100 µM (inactive) | > 100 µM (inactive) | > 100 µM (inactive) |  | > 100 µM (inactive) | > 100 µM (inactive) |  |
| Cc1cccc(-c2nc(-c3cnccn3)n(Cc3ccccc3)n2)c1 |  |  |  |  |  |  |  |  | 90.6 µM (inactive) |
| CC(=O)OC1C2CCC1C1C2C2(Cl)C(Cl)=C(Cl)C1(Cl)C2(Cl)Cl (stereo unspecified) | 12.6 µM (inactive) | 12.2 µM (inactive) | 18.9 µM (inactive) | 10.1 µM (inactive) |  | 11 µM (inactive) | 15.1 µM (inactive) | 17.4 µM (inactive) |  |
| O=S(=O)(O)c1c(/N=N/c2c(O)ccc3ccccc23)ccc2ccccc12 |  |  |  |  |  |  |  |  | > 100 µM (inactive) |
| NC(=O)C(=CNC(=S)Nc1ccc(S(=O)(=O)Nc2ccccn2)cc1)C(N)=O |  |  |  |  |  |  |  |  | > 100 µM (inactive) |
| CN(CCCCN(C)CCc1ccc(Cl)c(Cl)c1)CCCCN1CCCC1 |  |  |  |  |  |  |  |  | 2 µM (inactive) |
| CCN(CC)CCN(C)c1ccc(CO)c2c1c(=O)c1ccccc1[s+]2[O-] (stereo unspecified) |  |  |  |  |  |  |  |  | 13.4 µM (inactive) |
| Cc1cc2c(cc1C)[n+]([O-])c(C(=O)CC(=O)C(=O)Nc1c(C(C)C)cccc1C(C)C)c(C)[n+]2[O-] | > 100 µM (inactive) | > 100 µM (inactive) | > 100 µM (inactive) | > 100 µM (inactive) |  | > 100 µM (inactive) |  | > 100 µM (inactive) |  |
| C=CC(=O)Nc1ccccc1CC(c1c[nH]c2ccccc12)c1c[nH]c2ccccc12 | 15.5 µM (inactive) | 17.7 µM (inactive) |  |  | 16.7 µM (inactive) | 21.1 µM (inactive) |  | 16.3 µM (inactive) |  |
| CC1=NN(C(=O)Nc2ccc(Cl)cc2)C(=O)C2CCC(=O)N12 (stereo unspecified) | > 100 µM (inactive) | 47.3 µM (inactive) |  | 4.38 µM (inactive) |  | > 100 µM (inactive) | > 100 µM (inactive) | > 100 µM (inactive) |  |
| CP1(=O)CCCCC1 | > 100 µM (inactive) | > 100 µM (inactive) | > 100 µM (inactive) | > 100 µM (inactive) |  | > 100 µM (inactive) | > 100 µM (inactive) | > 100 µM (inactive) |  |
| CSc1ncc2c(n1)-c1ccccc1OC2N1CCOCC1 (stereo unspecified) |  |  |  |  |  |  |  |  | 24.1 µM (inactive) |
| C=CCCCCCCCCCP(=O)(c1ccccc1)c1ccc2c(c1)OCCOCCOCCOCCO2 (stereo unspecified) |  | 15.1 µM (inactive) | 16.3 µM (inactive) | 14.1 µM (inactive) |  | 18.7 µM (inactive) | 13.6 µM (inactive) | 19.1 µM (inactive) |  |
| CCCCCCCCCCCCCCCCOCC(CCl)OP(=O)(O)OP(=O)(O)OCC1OC(n2ccc(N)nc2=O)C(O)C1O (stereo unspecified) |  |  |  |  |  |  |  |  | > 100 µM (inactive) |
| COC(=O)C12C(=O)O[C@H](C)C1(O)C(C)C(=O)N2C (stereo partly specified) | > 100 µM (inactive) |  | > 100 µM (inactive) |  |  | 0.662 µM (active) | > 100 µM (inactive) | > 100 µM (inactive) |  |
